Results published in patent US11696913B2, “Prolonged ectoparasite-controlling agent for animal” (MITSUI CHEMICALS AGRO, INC., priority 2017, dated 2023).

Assays:
Ixodes ricinus = assay: In vitro contact test with adult hard ticks (Ixodes ricinus); settings: read-out: acaricidal activity; for pest or weed control at 0.2 µg/cm2, 0.2 µg/cm2: dose 0.2 μg/cm^2, 48 h; for pest or weed control at 1 µg/cm2, 1 µg/cm2: dose 1 μg/cm^2, 48 h; for pest or weed control at 5 µg/cm2, 5 µg/cm2: dose 5 μg/cm^2, 48 h
Method in brief: (§1)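 Acaricidal activity = % ticks dead or moribund after 48 h contact with acetone-deposited compound on vial walls (e.g., 900 ppm solution → 5 μg/cm^2). Ambient conditions for R. sanguineus, 21° C./85% rel. hum. for other species; heat challenge at 45-50° C. separated climbers from moribund ticks.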

Spodoptera litura = assay: Insecticidal testing against common cutworm; assay type: in vivo; settings: foliar, 144 h, concentration 100 ppm, cabbage leaf dip, second-stage larvae, after 6 days, read-out: pesticidal rate
Excerpt: Insecticidal Testing Against Common Cutworm (Spodoptera litura)

[1] = system: Rhipicephalus (Boophilus) microplus; assay: In vitro injection test with Rhipicephalus (Boophilus) microplus (BOOPMI Inj); settings: 168 h, laid fertile eggs after 7 days, read-out: acaricidal activity; for pest or weed control at 0.00016 mg: dose 0.16 μg/animal injected; for pest or weed control at 0.0008 mg: dose 0.8 μg/animal injected; for pest or weed control at 32 ng: dose 0.032 μg/animal injected; for pest or weed control at 6.4 ng: dose 0.0064 μg/animal injected
Method in brief: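 Five engorged adult females each get a 1 μl abdominal injection of compound dissolved and diluted in DMSO. Kept 7 days at 28° C./85% rel. hum.; percent activity rates egg laying and egg fertility (0% all fertile, 100% none laid or infertile).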

Dermacentor variabilis = assay: In vitro contact test with adult hard ticks (Dermacentor variabilis); settings: read-out: acaricidal activity; for pest or weed control at 0.2 µg/cm2, 0.2 µg/cm2: dose 0.2 μg/cm^2, 48 h; for pest or weed control at 1 µg/cm2, 1 µg/cm2: dose 1 μg/cm^2, 48 h
Method in brief: as §1

Ctenocephalides felis [2] = assay: Ctenocephalides felis in-vitro feeding test with fleas (CTECFE oral); settings: 48 hours, read-out: insecticidal feeding activity; for pest or weed control at 0.16 ppm: dose 0.16 ppm in citrated cattle blood; for pest or weed control at 0.8 ppm: dose 0.8 ppm in citrated cattle blood; for pest or weed control at 4 ppm: dose 4 ppm in citrated cattle blood; for pest or weed control at 0.032 ppm: dose 0.032 ppm in citrated cattle blood; for pest or weed control at 0.0064 ppm: dose 0.0064 ppm in citrated cattle blood
Method in brief: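 Scored as percent fleas killed (0–100%) 48 hours after feeding began. Compound, dissolved in DMSO and diluted into citrated cattle blood, was offered via a parafilm membrane to roughly 20 adult male and female C. felis at about 37° C.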

Amblyomma americanum = assay: In vitro contact test with hard ticks (Amblyomma americanum nymphs); settings: read-out: acaricidal activity; for pest or weed control at 0.2 µg/cm2, 0.2 µg/cm2: dose 0.2 μg/cm^2, 48 h; for pest or weed control at 1 µg/cm2, 1 µg/cm2: dose 1 μg/cm^2, 48 h; for pest or weed control at 0.04 µg/cm2, 0.04 µg/cm2: dose 0.04 μg/cm^2, 48 h
Method in brief: as §1

Laodelphax striatellus = assay: Insecticidal testing against small brown planthopper; assay type: in vivo; settings: 144 h, concentration 100 ppm, sprayed rice seedlings, after 6 days, read-out: pesticidal rate
Method in brief: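 Acetone solution of compound at a set concentration sprayed onto rice seedlings, air-dried, then exposed to 10 planthoppers (one group). Held at 25° C; survival rate recorded after 6 days.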

Plutella xylostella = assay: Insecticidal testing against diamondback moth; assay type: in vivo; settings: foliar, 144 h, concentration 100 ppm, cabbage leaf dip, third-stage larvae, after 6 days, read-out: pesticidal rate
Excerpt: Insecticidal Testing Against Diamondback Moth (Plutella xylostella)

Rhipicephalus sanguineus = assay: In vitro contact test with adult hard ticks (Rhipicephalus sanguineus); settings: read-out: acaricidal activity; for pest or weed control at 0.2 µg/cm2, 0.2 µg/cm2: dose 0.2 μg/cm^2, 48 h; for pest or weed control at 1 µg/cm2, 1 µg/cm2: dose 1 μg/cm^2, 48 h; for pest or weed control at 0.04 µg/cm2, 0.04 µg/cm2: dose 0.04 μg/cm^2, 48 h
Method in brief: as §1

Ctenocephalides felis [3] = assay: In vitro contact test with fleas; settings: read-out: insecticidal activity; for pest or weed control at 0.04 µg/cm2, 0.04 µg/cm2: dose 0.04 μg/cm^2, dead or moribund fleas after 48 h; for pest or weed control at 0.2 µg/cm2, 0.2 µg/cm2: dose 0.2 μg/cm^2, dead or moribund fleas after 48 h; for pest or weed control at 1 µg/cm2, 1 µg/cm2: dose 1 μg/cm^2, dead or moribund fleas after 48 h
Method in brief: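 Activity is the percentage of fleas dead or moribund at 48 h, judged by immobility or uncoordinated movement after tapping. Tubes were coated by evaporating acetone solutions (900 ppm gives 5 μg/cm^2), then held 5-10 adult fleas of both sexes at room temperature and ambient humidity.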

SMILES | pest or weed control at 0.2 µg/cm2, 0.2 µg/cm2 (Ixodes ricinus) [%] | pest or weed control at 1 µg/cm2, 1 µg/cm2 (Ixodes ricinus) [%] | pest or weed control at 5 µg/cm2, 5 µg/cm2 (Ixodes ricinus) [%] | pest or weed control at 100 ppm (Spodoptera litura) [%] | pest or weed control at 0.00016 mg [1] [%] | pest or weed control at 0.0008 mg [1] [%] | pest or weed control at 0.2 µg/cm2, 0.2 µg/cm2 (Dermacentor variabilis) [%] | pest or weed control at 1 µg/cm2, 1 µg/cm2 (Dermacentor variabilis) [%] | pest or weed control at 0.16 ppm (Ctenocephalides felis [2]) [%] | pest or weed control at 0.8 ppm (Ctenocephalides felis [2]) [%] | pest or weed control at 4 ppm (Ctenocephalides felis [2]) [%] | pest or weed control at 0.2 µg/cm2, 0.2 µg/cm2 (Amblyomma americanum) [%] | pest or weed control at 1 µg/cm2, 1 µg/cm2 (Amblyomma americanum) [%] | pest or weed control at 100 ppm (Laodelphax striatellus) [%] | pest or weed control at 100 ppm (Plutella xylostella) [%] | pest or weed control at 1 µg/cm2, 1 µg/cm2 (Rhipicephalus sanguineus) [%] | pest or weed control at 0.2 µg/cm2, 0.2 µg/cm2 (Ctenocephalides felis [3]) [%] | pest or weed control at 1 µg/cm2, 1 µg/cm2 (Ctenocephalides felis [3]) [%] | pest or weed control at 32 ng [1] [%] | pest or weed control at 0.032 ppm (Ctenocephalides felis [2]) [%] | further results
O=C(Nc1cccc(C(=O)Nc2c(Br)cc(C(F)(C(F)(F)F)C(F)(F)F)cc2OC(F)(F)F)c1F)c1ccc(F)c(F)c1 [Compound 101] | 90 | 90 | 90 | ≥ 70 | 100 | 100 | 90 | 90 | 95 | 95 | 95 | 90 | 90 | ≥ 70 | ≥ 70 | 90 | 95 | 95 |  |  | pest or weed control at 0.2 µg/cm2, 0.2 µg/cm2 (Rhipicephalus sanguineus): 90%; pest or weed control at 0.04 µg/cm2, 0.04 µg/cm2 (Ctenocephalides felis [3]): 95%
O=C(Nc1cccc(C(=O)Nc2c(I)cc(C(F)(C(F)(F)F)C(F)(F)C(F)(F)F)cc2C(F)(F)F)c1F)c1ccc(C(F)(F)F)nc1 (stereo not drawn) [Compound 102] |  |  | 90 | ≥ 70 | 100 | 100 |  | 90 | 95 | 95 | 95 | 90 | 90 | ≥ 70 | ≥ 70 | 90 | 95 | 95 | 100 | 95 | pest or weed control at 0.2 µg/cm2, 0.2 µg/cm2 (Rhipicephalus sanguineus): 90%
CN(C(=O)c1ccc(F)cc1)c1cccc(C(=O)Nc2c(Br)cc(C(F)(C(F)(F)F)C(F)(F)C(F)(F)F)cc2OC(F)F)c1F (stereo not drawn) [Compound 105] |  | 90 | 90 | ≥ 70 | 100 | 100 | 90 | 90 | 95 | 95 | 95 |  | 90 | ≥ 70 | ≥ 70 | 90 | 95 | 95 | 100 | 95 | pest or weed control at 0.04 µg/cm2, 0.04 µg/cm2 (Amblyomma americanum): 90%; pest or weed control at 0.04 µg/cm2, 0.04 µg/cm2 (Ctenocephalides felis [3]): 95%
O=C(Nc1cccc(C(=O)Nc2c(Br)cc(C(F)(C(F)(F)F)C(F)(F)C(F)(F)F)cc2OC(F)F)c1F)c1ccc(F)cc1 (stereo not drawn) [Compound 106] | 90 | 90 | 90 | ≥ 70 | 100 | 100 | 90 | 90 | 95 | 95 | 95 | 90 | 90 | ≥ 70 | ≥ 70 | 90 | 95 | 95 | 100 | 95 | pest or weed control at 6.4 ng [1]: 100%; pest or weed control at 0.04 µg/cm2, 0.04 µg/cm2 (Dermacentor variabilis; dose 0.04 μg/cm^2, 48 h): 90%; pest or weed control at 0.0064 ppm (Ctenocephalides felis [2]): 95%; pest or weed control at 0.04 µg/cm2, 0.04 µg/cm2 (Amblyomma americanum): 90%; pest or weed control at 0.04 µg/cm2, 0.04 µg/cm2 (Rhipicephalus sanguineus): 90%; pest or weed control at 0.2 µg/cm2, 0.2 µg/cm2 (Rhipicephalus sanguineus): 90%; pest or weed control at 0.04 µg/cm2, 0.04 µg/cm2 (Ctenocephalides felis [3]): 95%
O=C(Nc1cccc(C(=O)Nc2c(I)cc(C(F)(C(F)(F)F)C(F)(F)F)cc2OC(F)F)c1F)c1ccc(C(F)(F)F)nc1 [Compound 108] | 90 | 90 | 90 | ≥ 70 | 100 | 100 | 90 | 90 | 95 | 95 | 95 | 90 | 90 | ≥ 70 | ≥ 70 | 90 | 95 | 95 | 100 | 95 | pest or weed control at 0.0064 ppm (Ctenocephalides felis [2]): 95%; pest or weed control at 0.04 µg/cm2, 0.04 µg/cm2 (Rhipicephalus sanguineus): 90%; pest or weed control at 0.2 µg/cm2, 0.2 µg/cm2 (Rhipicephalus sanguineus): 90%
CN(C(=O)c1ccc(F)c(F)c1)c1cccc(C(=O)Nc2c(I)cc(C(F)(C(F)(F)F)C(F)(F)F)cc2OC(F)F)c1F [Compound 109] | 90 | 90 | 90 | ≥ 70 | 100 | 100 | 90 | 90 | 95 | 95 | 95 |  | 90 | ≥ 70 | ≥ 70 |  | 95 | 95 | 100 | 95 | pest or weed control at 6.4 ng [1]: 100%; pest or weed control at 0.04 µg/cm2, 0.04 µg/cm2 (Rhipicephalus sanguineus): 90%; pest or weed control at 0.04 µg/cm2, 0.04 µg/cm2 (Ctenocephalides felis [3]): 95%
